Where two headings read alike, the source gives them in different places.
Columns and labels:
[1] = biological target: T1, AEA-DA lipid probe targets in Neuro2a cells (Mus musculus, UniProt Q02819)
T1 sequence (Q02819 26-459): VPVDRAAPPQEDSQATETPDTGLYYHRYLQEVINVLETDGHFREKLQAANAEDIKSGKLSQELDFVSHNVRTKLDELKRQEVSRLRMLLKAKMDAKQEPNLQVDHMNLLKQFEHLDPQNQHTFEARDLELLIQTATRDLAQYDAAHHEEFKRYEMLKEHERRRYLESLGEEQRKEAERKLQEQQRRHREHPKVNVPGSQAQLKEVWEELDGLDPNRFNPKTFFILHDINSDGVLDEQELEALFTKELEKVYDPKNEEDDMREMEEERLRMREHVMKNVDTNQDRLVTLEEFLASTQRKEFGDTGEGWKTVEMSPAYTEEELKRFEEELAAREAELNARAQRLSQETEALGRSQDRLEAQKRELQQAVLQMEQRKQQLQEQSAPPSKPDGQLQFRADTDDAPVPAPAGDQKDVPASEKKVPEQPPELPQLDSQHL

[2] = biological target: T2, AEA-DA lipid probe targets in Neuro2a cells (Mus musculus, UniProt Q80ZW2)
T2 sequence (Q80ZW2 22-207): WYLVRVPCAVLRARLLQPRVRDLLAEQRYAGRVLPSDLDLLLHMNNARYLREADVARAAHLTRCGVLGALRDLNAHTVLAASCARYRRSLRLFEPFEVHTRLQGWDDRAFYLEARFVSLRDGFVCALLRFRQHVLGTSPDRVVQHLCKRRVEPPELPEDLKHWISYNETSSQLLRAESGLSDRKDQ

[3] = biological target: T3, AEA-DA lipid probe targets in Neuro2a cells (Mus musculus, UniProt Q03517)
T3 sequence (Q03517 31-617): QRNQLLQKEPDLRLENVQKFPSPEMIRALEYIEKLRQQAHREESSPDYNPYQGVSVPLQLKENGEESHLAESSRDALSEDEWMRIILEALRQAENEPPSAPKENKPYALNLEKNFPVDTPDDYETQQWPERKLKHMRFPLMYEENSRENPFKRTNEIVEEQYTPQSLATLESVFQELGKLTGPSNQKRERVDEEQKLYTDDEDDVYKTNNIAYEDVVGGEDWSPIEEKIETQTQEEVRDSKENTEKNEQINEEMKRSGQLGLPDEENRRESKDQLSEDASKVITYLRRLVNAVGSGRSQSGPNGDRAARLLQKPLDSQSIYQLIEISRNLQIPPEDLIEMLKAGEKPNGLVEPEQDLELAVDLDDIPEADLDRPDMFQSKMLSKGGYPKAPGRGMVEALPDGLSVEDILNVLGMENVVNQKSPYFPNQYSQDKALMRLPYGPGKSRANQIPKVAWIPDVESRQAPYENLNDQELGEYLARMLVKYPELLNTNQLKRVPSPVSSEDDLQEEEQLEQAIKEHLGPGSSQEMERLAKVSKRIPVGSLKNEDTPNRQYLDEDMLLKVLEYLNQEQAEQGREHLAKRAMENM

[4] = biological target: T4, AEA-DA lipid probe targets in Neuro2a cells (Mus musculus, UniProt Q99P72)
T4 sequence (Q99P72 1-1162): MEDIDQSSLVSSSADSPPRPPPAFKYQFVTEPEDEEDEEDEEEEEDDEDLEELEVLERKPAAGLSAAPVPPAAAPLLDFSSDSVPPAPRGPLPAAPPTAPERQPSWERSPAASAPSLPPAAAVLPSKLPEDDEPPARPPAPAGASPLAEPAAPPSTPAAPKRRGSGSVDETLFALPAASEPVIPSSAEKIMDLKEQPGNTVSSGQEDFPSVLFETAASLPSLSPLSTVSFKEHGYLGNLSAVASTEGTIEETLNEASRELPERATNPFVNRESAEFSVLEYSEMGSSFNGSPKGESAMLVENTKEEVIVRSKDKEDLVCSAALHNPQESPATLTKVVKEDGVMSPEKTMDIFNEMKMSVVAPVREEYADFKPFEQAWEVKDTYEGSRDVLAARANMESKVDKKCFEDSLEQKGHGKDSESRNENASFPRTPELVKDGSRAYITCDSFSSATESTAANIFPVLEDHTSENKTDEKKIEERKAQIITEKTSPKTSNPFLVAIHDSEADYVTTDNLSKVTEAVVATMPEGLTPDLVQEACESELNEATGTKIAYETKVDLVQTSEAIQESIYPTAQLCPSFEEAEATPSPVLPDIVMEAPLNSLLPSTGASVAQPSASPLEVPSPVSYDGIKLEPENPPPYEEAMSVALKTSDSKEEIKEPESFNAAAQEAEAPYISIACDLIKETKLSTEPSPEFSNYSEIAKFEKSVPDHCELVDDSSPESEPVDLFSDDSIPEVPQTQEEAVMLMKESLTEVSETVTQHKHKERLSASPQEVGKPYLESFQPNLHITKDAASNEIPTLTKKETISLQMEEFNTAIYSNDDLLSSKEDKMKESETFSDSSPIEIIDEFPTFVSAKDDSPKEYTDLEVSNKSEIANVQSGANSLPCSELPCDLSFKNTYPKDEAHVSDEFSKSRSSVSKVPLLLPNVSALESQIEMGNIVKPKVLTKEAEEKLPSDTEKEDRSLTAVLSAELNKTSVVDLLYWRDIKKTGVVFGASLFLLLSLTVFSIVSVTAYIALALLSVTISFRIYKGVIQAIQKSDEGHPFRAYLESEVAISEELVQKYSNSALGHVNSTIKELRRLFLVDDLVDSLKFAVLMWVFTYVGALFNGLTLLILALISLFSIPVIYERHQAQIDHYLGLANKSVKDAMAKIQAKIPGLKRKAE

[5] = biological target: AEA-DA lipid probe targets in Neuro2a cells (Mus musculus, UniProt Q8VE88)
[6] = biological target: AEA-DA lipid probe targets in Neuro2a cells (Mus musculus, UniProt P62821)
[7] = biological target: AEA-DA lipid probe targets in Neuro2a cells (Mus musculus, UniProt Q91VE6)
AEA-DA lipid probe targets in Neuro2a cells (Mus musculus, UniProt Q91VE6), sequence (Q91VE6 whole entry): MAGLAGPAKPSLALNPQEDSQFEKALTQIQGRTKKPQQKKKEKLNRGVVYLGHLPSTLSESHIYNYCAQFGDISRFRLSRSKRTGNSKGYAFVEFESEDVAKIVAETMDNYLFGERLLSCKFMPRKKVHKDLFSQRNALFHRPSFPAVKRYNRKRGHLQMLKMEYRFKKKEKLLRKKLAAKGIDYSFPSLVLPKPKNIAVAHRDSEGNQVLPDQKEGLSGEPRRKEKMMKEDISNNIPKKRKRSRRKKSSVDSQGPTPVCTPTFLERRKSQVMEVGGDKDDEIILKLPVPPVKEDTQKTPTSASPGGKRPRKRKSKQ

AEA-DA lipid probe targets in Neuro2a cells (Mus musculus, UniProt P62821), sequence (P62821 whole entry): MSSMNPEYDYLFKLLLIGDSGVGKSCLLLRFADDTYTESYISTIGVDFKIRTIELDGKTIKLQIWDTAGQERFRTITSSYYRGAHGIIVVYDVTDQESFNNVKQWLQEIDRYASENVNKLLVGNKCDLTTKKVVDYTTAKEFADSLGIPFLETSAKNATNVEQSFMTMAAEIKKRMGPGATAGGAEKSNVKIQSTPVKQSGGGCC
AEA-DA lipid probe targets in Neuro2a cells (Mus musculus, UniProt Q8VE88), sequence (Q8VE88 whole entry): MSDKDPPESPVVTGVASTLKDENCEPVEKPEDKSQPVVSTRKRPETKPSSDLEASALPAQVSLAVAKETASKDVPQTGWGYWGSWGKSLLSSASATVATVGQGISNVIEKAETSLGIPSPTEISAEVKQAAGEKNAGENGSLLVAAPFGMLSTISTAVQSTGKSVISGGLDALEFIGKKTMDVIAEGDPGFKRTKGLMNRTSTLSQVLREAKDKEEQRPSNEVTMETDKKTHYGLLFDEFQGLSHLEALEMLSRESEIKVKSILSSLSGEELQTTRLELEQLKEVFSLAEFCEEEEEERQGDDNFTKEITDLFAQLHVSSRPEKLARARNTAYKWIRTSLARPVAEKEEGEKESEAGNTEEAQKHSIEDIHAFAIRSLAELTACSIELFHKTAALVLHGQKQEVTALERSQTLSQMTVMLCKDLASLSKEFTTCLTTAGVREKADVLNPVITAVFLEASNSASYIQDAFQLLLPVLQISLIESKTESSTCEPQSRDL

CCCCC/C=C\C/C=C\C/C=C\C/C=C\CCCC(=O)NCCO [AEA, anandamide, reference compound]
SILAC ratio, Nucb1 ([1]; competitor 200 μM): 1.5 | SILAC ratio Them6 ([2]; competitor 200 μM): 1.9 | SILAC ratio, Scg2 ([3]; competitor 200 μM): 1.2 | SILAC ratio, Rtn4 ([4]; competitor 200 μM): 1.8 | SILAC ratio, Fam114a2 ([5]; competitor 200 μM): 1.4 | SILAC ratio Rab1A ([6]; competitor 200 μM): 1.2 | SILAC ratio Mki67ip ([7]; competitor 200 μM): 1.4

O=C(/C=C/c1cccnc1)NCCCCC1CCN(C(=O)c2ccccc2)CC1 [FK-866, reference compound]
interaction with NUCB1 protein ([1]; FIG. 16I and Table 4): did not interact | SILAC ratio, Nucb1 ([1]; competitor 25 μM): 1.2 | SILAC ratio Them6 ([2]; competitor 25 μM): 1.0 | SILAC ratio, Scg2 ([3]; competitor 25 μM): 1.0 | SILAC ratio, Rtn4 ([4]; competitor 25 μM): 1.1 | SILAC ratio, Fam114a2 ([5]; competitor 25 μM): 1.0 | SILAC ratio Rab1A ([6]; competitor 25 μM): 1.1 | SILAC ratio Mki67ip ([7]; competitor 25 μM): 1.0

CN1CCN(C(=O)c2c(-c3ccccc3)c3cc([N+](=O)[O-])ccc3n2C)CC1 [KML110, (1-Methyl-5-nitro-3-phenyl-1H-indol-2-yl)(4-methylpiperazin-1-yl)methanone]
SILAC ratio, Nucb1 ([1]; competitor 25 μM): 3.4 | SILAC ratio Them6 ([2]; competitor 25 μM): 1.3 | SILAC ratio, Scg2 ([3]; competitor 25 μM): 1.4 | SILAC ratio, Rtn4 ([4]; competitor 25 μM): 1.4 | SILAC ratio, Fam114a2 ([5]; competitor 25 μM): 2.2 | SILAC ratio Rab1A ([6]; competitor 25 μM): 1.3 | SILAC ratio Mki67ip ([7]; competitor 25 μM): 1.5

CN1CCN(C(=O)c2[nH]c3ccc([N+](=O)[O-])cc3c2-c2ccccc2)CC1 [MJN228, (4-Methylpiperazin-1-yl)(5-nitro-3-phenyl-1H-indol-2-yl)methanone]
concentration at which lipid probe binding to NUCB1 is inhibited (as low as) ([1]; Neuro2a cells, AEA-DA 5 μM): 10 µM | concentration of near-maximal inhibition of lipid probe binding to NUCB1 ([1]; Neuro2a cells, AEA-DA 5 μM): ~25 µM | SILAC ratio, Nucb1 ([1]; competitor 10 μM): 3.1 | SILAC ratio, Nucb1 ([1]; competitor 25 μM): 4.7 | SILAC ratio, Nucb1 ([1]; competitor 50 μM): 5.6 | SILAC ratio, Nucb1 ([1]; competitor 100 μM): 6.2 | SILAC ratio Them6 ([2]; competitor 10 μM): 1.2 | SILAC ratio Them6 ([2]; competitor 25 μM): 1.3 | SILAC ratio Them6 ([2]; competitor 100 μM): 1.3 | SILAC ratio, Scg2 ([3]; competitor 10 μM): 1.3 | SILAC ratio, Scg2 ([3]; competitor 25 μM): 1.5 | SILAC ratio, Scg2 ([3]; competitor 50 μM): 1.2 | SILAC ratio, Scg2 ([3]; competitor 100 μM): 1.1 | SILAC ratio, Rtn4 ([4]; competitor 10 μM): 1.0 | SILAC ratio, Rtn4 ([4]; competitor 25 μM): 1.3 | SILAC ratio, Rtn4 ([4]; competitor 50 μM): 1.2 | SILAC ratio, Rtn4 ([4]; competitor 100 μM): 1.4 | SILAC ratio, Fam114a2 ([5]; competitor 10 μM): 1.6 | SILAC ratio, Fam114a2 ([5]; competitor 25 μM): 3.5 | SILAC ratio, Fam114a2 ([5]; competitor 50 μM): 4.1 | SILAC ratio, Fam114a2 ([5]; competitor 100 μM): 7.6 | SILAC ratio Rab1A ([6]; competitor 10 μM): 1.1 | SILAC ratio Rab1A ([6]; competitor 25 μM): 1.3 | SILAC ratio Rab1A ([6]; competitor 50 μM): 1.3 | SILAC ratio Rab1A ([6]; competitor 100 μM): 1.3 | SILAC ratio Mki67ip ([7]; competitor 10 μM): 1.2 | SILAC ratio Mki67ip ([7]; competitor 25 μM): 1.5 | SILAC ratio Mki67ip ([7]; competitor 50 μM): 1.8 | SILAC ratio Mki67ip ([7]; competitor 100 μM): 2.3

C=CCN(C)CCCCCCOc1ccc(C(=O)c2ccc(Br)cc2)c(F)c1 [Ro 48-8071, reference compound]
SILAC ratio, Nucb1 ([1]; competitor 25 μM): 0.9 | SILAC ratio Them6 ([2]; competitor 25 μM): 1.0 | SILAC ratio, Scg2 ([3]; competitor 25 μM): 1.1 | SILAC ratio, Rtn4 ([4]; competitor 25 μM): 1.0 | SILAC ratio, Fam114a2 ([5]; competitor 25 μM): 1.6 | SILAC ratio Rab1A ([6]; competitor 25 μM): 1.0 | SILAC ratio Mki67ip ([7]; competitor 25 μM): 1.0
